Data: US8637050B2, “Peptide vaccines against group A streptococci” (The United States of America, as represented by the …, priority 2001, dated 2014)

The sequences below were run on rabbit sera prepared against whole M protein (assay: ELISA: peptide recognition by anti-M protein rabbit sera).
Assay type: binding
Method: Overlapping peptides representing each M type were assessed for their immunogenicity using ELISA and dot-immunoblot.
Levels of anti-M protein antibodies in mouse sera were determined by an enzyme-linked immunosorbent assay (ELISA) using either synthetic peptides or whole M protein as antigen. Microtiter plates (DYNEX Immulon 2 HB) were coated with 10 μg/ml antigen in 10 mM phosphate-buffered saline (PBS) at 4° C. overnight. Plates were rinsed three times with wash buffer (0.05% Tween 20 in 10 mM PBS, pH 7.2) and blocked with 1% BSA in PBS for one hour at 37° C. The appropriate test sera were applied at a starting dilution of 1:1000 and serially diluted two fold down the plate in PBS. Plates were incubated at 37° C. for 30 minutes and subsequently rinsed three times. Goat anti-rabbit or goat anti-mouse Ig-peroxidase conjugate diluted 1:10,000 in PBS was added to all wells and incubated for two hours at 37° C. Plates were rinsed three times with wash buffer and freshly prepared TMB peroxidase (Kirkegaard and Perry Laboratories) was added. Reactions were quenched with 0.18 M H2SO4 after 30 minutes at room temperature and OD450 was measured with a Labsystems Multiskan plate reader using Ascent software. ELISA titers are expressed as the reciprocal of the last dilution which gave a reading OD450>0.10.
The immunoreactivity of several synthetic peptides was determined by ELISA using rabbit sera prepared against whole M protein. The synthetic peptides are representative of relatively small portions of the M protein N-terminus; therefore, it was advantageous to determine if the epitopes contained within particular peptides were immunoreactive with sera prepared against whole M protein. It was shown that the whole anti-M protein rabbit sera of the respective serotypes could bind to each of the synthetic peptides within that serotype. However, some peptides were more highly immunoreactive than others, thus being better suited for use in the animal studies.

| Sequence | immunoreactivity by ELISA using rabbit sera prepared against whole M protein |
| --- | --- |
| CAAPLTRATADNKDELIKRAND [Peptide M18-1] | confirmed |
| CADHPSYTAAKDEVLSKFSVPGH [Peptide M101-1] | confirmed |
| CAEIKKPQADSAWNWPKEYNA [Peptide M4-1] | confirmed |
| CAELYNKIQELEEGKAELFDK [st2967-6] | confirmed |
| CAESPKSTETSANGADKLAD [Peptide M28-1] | confirmed |
| CAGQSAPKGTNVSADLYNSLWDE [Peptide M11-1] | confirmed |
| CDAEQNRANELEKKLSGYEKD [Peptide M82-4] | confirmed |
| CDDRSVSTNSGSVSTPYNNLLNE [Peptide M92-1] | confirmed |
| CDENKTLREKQEEYITKIQNE [Peptide M11-3] | confirmed |
| CDKLADAYNTLLTEHEKLRDE [Peptide M28-3] | confirmed |
| CDKLRLEKEELKTDLQKKERE [Peptide M101-4] | confirmed |
| CDLEEEREKLLNKLDKVEEEHKKD [Peptide M77-3] | confirmed |
| CDLEEERGKLLNKLDKVEEEHK [Peptide M77-4] | confirmed |
| CDLLAKHGELLSEYDALKEKQDK [Peptide M92-4] | confirmed |
| CDNINRSVSVKDNEKELHNKIAD [Peptide M89-2] | confirmed |
| CDNQSPALVKKEAKKLNEAEL [Peptide M73-4] | confirmed |
| CDNQSPAPAPVKKEAKKLNEAE [Peptide M73-5] | confirmed |
| CDNQSPAPVKKEAKKLNEAE [Peptide M73-1] | confirmed |
| CDPQRAKEALDKYELENHDLK [Peptide M5-2] | confirmed |
| CDSAWNWPKEYNALLKENEEL [Peptide M4-2] | confirmed |
| CDSDNINRFVSVKDNEKELHN [Peptide M89-6] | confirmed |
| CDSDNINRSVSVKDNEKELHNK [Peptide M89-1] | confirmed |
| CDSDNSDNINRSVSVKDNEKE [Peptide M89-7] | confirmed |
| CDSSRDSSREVTNELTASMWK [Peptide M58-5] | confirmed |
| CDSSREVTNELAASMWKAQAD [Peptide M58-4] | confirmed |
| CDSSREVTNELTASMWKAQAD [Peptide M58-1] | confirmed |

| Sequence | immunoreactivity by ELISA using rabbit sera prepared against whole M protein |
| --- | --- |
| CDSSSRDITEAGVSKFWKSKFD [Peptide M82-1] | confirmed |
| CDVLNNTPHNQLRDAYAGAFRR [Peptide M41-4] | confirmed |
| CEAGVSKFWKSKFDAEQNRANE [Peptide M82-3] | confirmed |
| CEEASNNGQLTLQHKNNALTSE [Peptide M94-1] | confirmed |
| CEEERTFTELPYEARYKAWKSE [Peptide M75-1] | confirmed |
| CEEHEKVTQAREAVIREMQQR [Peptide M33-1] | confirmed |
| CEEHPDVVAARESVLNNVR [Peptide M43-1] | confirmed |
| CEELKVEREKYLSYADDKEKDPQ [Peptide M4-4] | confirmed |
| CEGNARLAQAQEEALRDVLNN [Peptide M41-1] | confirmed |
| CEGVSVGSDASLHNRITDLEEEREK [Peptide M77-1] | confirmed |
| CEIQNHQLTVENKKLKTDKEQ [Peptide M18-3] | confirmed |
| CEKLREELQQYYALSDAKEEE [Peptide M22-6] | confirmed |
| CELFEKLDKVEEEHKKVEEEHKK [Peptide M2-4] | confirmed |
| CELHDKIKNLEEEKAELFEKLD [Peptide M2-3] | confirmed |
| CELHNEIADLEEERGEHLDKID [Peptide M89-4] | confirmed |
| CELHNKIADLEEERGAHLDKID [Peptide M89-5] | confirmed |
| CELPYEARYKAWKSENDELREN [Peptide M75-2] | confirmed |
| CELTLQQKYDALTNENKSLRRE [Peptide M59-2] | confirmed |
| CELYNKIQELEEGKAELFDKLEK [Peptide M73-3] | confirmed |
| CEMQQRGTNFGPLLASTMRDNH [Peptide M33-3] | confirmed |
| CENHDLKTKNEGLKTENEGLK [Peptide M5-3] | confirmed |
| CENPDKARELLNKYDVENSMLQ [Peptide M6-3] | confirmed |
| CENSMLQANNDNLTDQNKNLTD [Peptide M6-4] | confirmed |
| CEQAKNNNGELTLQQKYDALT [Peptide M59-1] | confirmed |
| CESKLINTLTDENEKLREELQQ [Peptide M22-3] | confirmed |
| CESLRREKDRYLYEKEELEKK [Peptide M94-3] | confirmed |

| Sequence | immunoreactivity by ELISA using rabbit sera prepared against whole M protein |
| --- | --- |
| CESSNISQESKLINTLTDENEK [Peptide M22-2] | confirmed |
| CESSNNAESSNISQESKLINT [Peptide M22-1] | confirmed |
| CEYDDLLAKHGELLSEYDALK [Peptide M92-3] | confirmed |
| CHDLKTKNEGLKTENEGLKTEN [Peptide M5-9] | confirmed |
| CHEKVTQAREAVIREMQQRGT [Peptide M33-2] | confirmed |
| CHEREKNDKLSSENEGLK [Peptide M101-3] | confirmed |
| CHPDVVAARESVLNNVRVPGT [Peptide M43-2] | confirmed |
| CIRLRHHENKDLKARLENAMEV [Peptide M1-8] | confirmed |
| CIRNIRLRHENKDLKARLENA [Peptide M1-5] | confirmed |
| CKAKELEKQVEEYKKNYETLEK [Peptide M58-3] | confirmed |
| CKAWKSENDELRENYRKTLDK [Peptide M75-4] | confirmed |
| CKDELIKRKELTIIEIQNHQL [Peptide M18-5] | confirmed |
| CKDEVLSKFSVPGHVWAHERE [Peptide M101-2] | confirmed |
| CKENEELKVEREKYLSYADDK [Peptide M4-3] | confirmed |
| CKFERLKQRSELYLHQYYDNK [Peptide M12-4] | confirmed |
| CKFERLKRRSELYLQQYYDNK [Peptide M12-5] | confirmed |
| CKGTNVSADLYNSLWDENKT [Peptide M11-2] | confirmed |
| CKKEAKKLNEAELYNKIQELE [Peptide M73-2] | confirmed |
| CKKEAKLSEAELHDKIKNLEEEK [Peptide M2-2] | confirmed |
| CKKEATKLSEAELYNKIQELEE [st2967-3] | confirmed |
| CKNDKLSSENEGLKAGLQEKE [Peptide M101-5] | confirmed |
| CKQRSELYLQQYYDNKSNRYK [Peptide M12-6] | confirmed |
| CKSTETSANGADKLADAYNTL [Peptide M28-2] | confirmed |
| CLAQVTQLYTKHNSNYQQYNA [Peptide M3-7] | confirmed |
| CLDQVTQLYTKHNSNYQQYNA [Peptide M3-3] | confirmed |
